# Data: patent publication US10059674B2, “Design, synthesis, and biological evaluation of 1-methyl-1, 4-dihyrdoindeno[1,2-C]pyrazole analogues as potential anticaner agents targeting tubulin colchicine binding site” (ACT PHARMA CO., LTD., priority 2016, dated 2018)
# Like-named read-outs stand apart in the source and are kept apart here.
# What was measured:
# [1] = in vitro; conditions: human, microsomes, pH 7.47
# [2] = in vitro; conditions: mouse, liver microsomes, pH 7.47
# [3] = In vivo pharmacokinetic test, drug concentration in blood plasma by LC-MS/MS; set-up: species or system SD rats; conditions: for Drug concentration in blood plasma / concentration at 0.25 h / concentration at 0.5 h / concentration at 1 h / concentration at 8 h / concentration at 24 h / concentration at 0.08 h / concentration at 2 h / concentration at 4 h: SD rats; for Drug concentration in blood plasma / concentration at 24 h: 24 h; for concentration at 0.25 h / concentration at 0.5 h / concentration at 1 h / concentration at 8 h / concentration at 24 h / concentration at 0.08 h / concentration at 2 h / concentration at 4 h / AUC(0-t) / Cmax / AUC(0-inf) / clearance / MRT inf / Vd / Vd/F: SD; for concentration at 0.25 h / concentration at 0.5 h / concentration at 1 h / concentration at 8 h / concentration at 24 h / concentration at 0.08 h / concentration at 2 h / concentration at 4 h / AUC(0-t) / Cmax / AUC(0-inf) / clearance / MRT inf / Vd / Vd/F / Tmax: rat, plasma; for HL_Lambda_z / Cl—F—pred / F / AUC(0-t) / Cmax / AUC(0-inf) / clearance / MRT inf / Vd / Vd/F / Tmax: male SD rats; for AUC(0-inf): read-out: AUCINF—pred; for clearance: read-out: Cl—pred (converted); for MRT inf: read-out: MRTINF—pred; for Vd: read-out: Vz—pred; for Vd/F: read-out: Vz—F—pred
# Description: 2. Test animal: SD rats, which are 284-304 g before the test, and bought from Shanghai Xipuer-Bikai laboratory animal Co., Ltd. with production license No. SCXK (Hu) 2013-0016, and laboratory animal certificate Nos. 2008001658223 and 2008001658296.
# 2.85 mg of compound LL-01 is weighed, and then put into a glass bottle; 0.687 mL of DMSO is added into the glass bottle, and ultrasonic treatment is carried out for 2 min; next, 2.062 mL of Solutol HS 15 is added thereto, and ultrasonic treatment is carried out for 4 min; and then 10.995 mL of PBS is added thereto, and ultrasonic treatment is carried out for 8 min after eddying. This test substance is numbered 20160324-RW-01, 12.74 mg of compound LL-01 is weighed, and then put into a glass bottle; 0.614 mL of DMSO is added into the glass bottle, and ultrasonic treatment is carried out for 2 min; next, 1.843 mL of Solutol HS 15 is added thereto, and ultrasonic treatment is carried out for 4 min; and then 9.830 mL of PBS is added thereto, and ultrasonic treatment is carried out for 8 min after eddying. This test substance is numbered 20160324-RW-02,
# The dosage of intravenous administration is 1 mg/kg, while the dosage of oral administration is 10 mg/kg. A night of fasting is required before administration, and feeding should be carried out 4 hours later after administration.
# Blood is collected (about 150-200 uL) at every time points of 0.083 (only vein), 0.25, 0.5, 1, 2, 4, 8, and 24 hours after administration through orbital venous plexus puncture into EDTA-K2 (20%, and 2 μL) anticoagulant tubes, respectively; the blood samples are centrifuged 8 min at 6000 rpm in 1 h (placed on wet ice before being centrifuged), and the supernatant, namely blood plasma is put into −20° C. low-temperature conservation for LC-MS/MS analysis later.
# The content of compound LL-01 in SD rat blood plasma is detected by use of LC-MS/MS method.
# Computer program Microsoft Office Excel 2007 (Microsoft, USA) is used for data processing, and drawing. A statistical moment method of WinNolin 6.4 processing software is used to calculate pharmacokinetic parameters.
# [4] = po, 10 mg/kg, oral 10 mg/kg, Mean
# [5] = po, 10 mg/kg, oral 10 mg/kg, animal 201M
# [6] = po, 10 mg/kg, oral 10 mg/kg, animal 202M
# [7] = po, 10 mg/kg, oral 10 mg/kg, animal 203M
# [8] = single intravenous 1 mg/kg, animal 101M
# [9] = single oral 10 mg/kg, animal 201M
# [10] = single oral 10 mg/kg, animal 202M
# [11] = single oral 10 mg/kg, animal 203M
# [12] = male, iv, 1 mg/kg, intravenous 1 mg/kg, Mean
# [13] = male, iv, 1 mg/kg, intravenous 1 mg/kg, animal 101M
# [14] = male, iv, 1 mg/kg, intravenous 1 mg/kg, animal 102M
# [15] = male, iv, 1 mg/kg, intravenous 1 mg/kg, animal 103M
# [16] = male, iv, 1 mg/kg, single intravenous 1 mg/kg, Mean
# [17] = male, iv, 1 mg/kg, single intravenous 1 mg/kg, animal 101M
# [18] = male, iv, 1 mg/kg, single intravenous 1 mg/kg, animal 102M
# [19] = male, iv, 1 mg/kg, single intravenous 1 mg/kg, animal 103M
# [20] = male, po, 10 mg/kg, oral 10 mg/kg, Mean
# [21] = male, po, 10 mg/kg, oral 10 mg/kg, animal 201M
# [22] = male, po, 10 mg/kg, oral 10 mg/kg, animal 202M
# [23] = male, po, 10 mg/kg, oral 10 mg/kg, animal 203M
# [24] = male, po, 10 mg/kg, single oral 10 mg/kg, Mean
# [25] = male, po, 10 mg/kg, single oral 10 mg/kg, animal 201M
# [26] = male, po, 10 mg/kg, single oral 10 mg/kg, animal 202M
# [27] = male, po, 10 mg/kg, single oral 10 mg/kg, animal 203M
smiles,measurement,setting,value
CCOc1cccc(Nc2nn(C)c3c2Cc2cc(OCC)c(OCC(N)=O)cc2-3)c1 [LL-01],half-life at 1 µM,[1],0.745 h
same,microsomal CLint at 1 µM,[1],31 µL/min/mg
same,half-life at 1 µM,[2],0.922 h
same,microsomal CLint at 1 µM,[2],25 µL/min/mg
same,Drug concentration in blood plasma,"[3]; intravenous 1 mg/kg, animal 101M",BLQ
same,Drug concentration in blood plasma,"[3]; intravenous 1 mg/kg, animal 102M",BLQ
same,Drug concentration in blood plasma,"[3]; intravenous 1 mg/kg, animal 103M",BLQ
same,concentration at 0.25 h,[3]; [4],280 ng/mL
same,concentration at 0.25 h,[3]; [5],159 ng/mL
same,concentration at 0.25 h,[3]; [6],466 ng/mL
same,concentration at 0.25 h,[3]; [7],216 ng/mL
same,concentration at 0.5 h,[3]; [4],558 ng/mL
same,concentration at 0.5 h,[3]; [5],374 ng/mL
same,concentration at 0.5 h,[3]; [6],959 ng/mL
same,concentration at 0.5 h,[3]; [7],339 ng/mL
same,concentration at 1 h,[3]; [4],917 ng/mL
same,concentration at 1 h,[3]; [5],869 ng/mL
same,concentration at 1 h,[3]; [6],1100 ng/mL
same,concentration at 1 h,[3]; [7],778 ng/mL
same,concentration at 8 h,[3]; [4],604 ng/mL
same,concentration at 8 h,[3]; [6],916 ng/mL
same,concentration at 8 h,[3]; [7],446 ng/mL
same,concentration at 24 h,[3]; [4],26.9 ng/mL
same,concentration at 24 h,[3]; [5],46.8 ng/mL
same,concentration at 24 h,[3]; [6],17.4 ng/mL
same,concentration at 24 h,[3]; [7],16.6 ng/mL
same,HL_Lambda_z,"[3]; single intravenous 1 mg/kg, Mean",1.00 h
same,HL_Lambda_z,[3]; [8],1.06 h
same,HL_Lambda_z,"[3]; single intravenous 1 mg/kg, animal 102M",1.00 h
same,HL_Lambda_z,"[3]; single intravenous 1 mg/kg, animal 103M",0.94 h
same,Cl—F—pred,"[3]; single oral 10 mg/kg, Mean",14.3 mL/min/kg
same,F,"[3]; single oral 10 mg/kg, Mean",41.02%
same,HL_Lambda_z,"[3]; single oral 10 mg/kg, Mean",3.60 h
same,Cl—F—pred,[3]; [9],15.2 mL/min/kg
same,F,[3]; [9],35.12%
same,HL_Lambda_z,[3]; [9],4.35 h
same,Cl—F—pred,[3]; [10],9.33 mL/min/kg
same,F,[3]; [10],58.28%
same,HL_Lambda_z,[3]; [10],2.95 h
same,Cl—F—pred,[3]; [11],18.3 mL/min/kg
same,F,[3]; [11],29.66%
same,HL_Lambda_z,[3]; [11],3.50 h
same,concentration at 0.08 h,[3]; [12],2600 ng/mL
same,concentration at 0.08 h,[3]; [13],2720 ng/mL
same,concentration at 0.08 h,[3]; [14],2400 ng/mL
same,concentration at 0.08 h,[3]; [15],2690 ng/mL
same,concentration at 0.25 h,[3]; [12],1950 ng/mL
same,concentration at 0.25 h,[3]; [13],2020 ng/mL
same,concentration at 0.25 h,[3]; [14],1920 ng/mL
same,concentration at 0.25 h,[3]; [15],1910 ng/mL
same,concentration at 0.5 h,[3]; [12],1630 ng/mL
same,concentration at 0.5 h,[3]; [13],1760 ng/mL
same,concentration at 0.5 h,[3]; [14],1390 ng/mL
same,concentration at 0.5 h,[3]; [15],1720 ng/mL
same,concentration at 1 h,[3]; [12],884 ng/mL
same,concentration at 1 h,[3]; [13],876 ng/mL
same,concentration at 1 h,[3]; [14],842 ng/mL
same,concentration at 1 h,[3]; [15],934 ng/mL
same,concentration at 2 h,[3]; [12],428 ng/mL
same,concentration at 2 h,[3]; [13],398 ng/mL
same,concentration at 2 h,[3]; [14],372 ng/mL
same,concentration at 2 h,[3]; [15],512 ng/mL
same,concentration at 4 h,[3]; [12],82.5 ng/mL
same,concentration at 4 h,[3]; [13],87.6 ng/mL
same,concentration at 4 h,[3]; [14],67.1 ng/mL
same,concentration at 4 h,[3]; [15],92.8 ng/mL
same,concentration at 8 h,[3]; [12],7.8 ng/mL
same,concentration at 8 h,[3]; [13],8.6 ng/mL
same,concentration at 8 h,[3]; [14],9.1 ng/mL
same,concentration at 8 h,[3]; [15],5.6 ng/mL
same,AUC(0-t),[3]; [16],3030 ng·h/mL
same,Cmax,[3]; [16],2600 ng/mL
same,AUC(0-inf),[3]; [16],3040 ng·h/mL
same,clearance,[3]; [16],5.5 mL/min/kg
same,MRT inf,[3]; [16],1.18 h
same,Vd,[3]; [16],0.48 L/kg
same,AUC(0-t),[3]; [17],3090 ng·h/mL
same,Cmax,[3]; [17],2720 ng/mL
same,AUC(0-inf),[3]; [17],3100 ng·h/mL
same,clearance,[3]; [17],5.33 mL/min/kg
same,MRT inf,[3]; [17],1.17 h
same,Vd,[3]; [17],0.49 L/kg
same,AUC(0-t),[3]; [18],2740 ng·h/mL
same,Cmax,[3]; [18],2400 ng/mL
same,AUC(0-inf),[3]; [18],2750 ng·h/mL
same,clearance,[3]; [18],6 mL/min/kg
same,MRT inf,[3]; [18],1.16 h
same,Vd,[3]; [18],0.53 L/kg
same,AUC(0-t),[3]; [19],3270 ng·h/mL
same,Cmax,[3]; [19],2690 ng/mL
same,AUC(0-inf),[3]; [19],3280 ng·h/mL
same,clearance,[3]; [19],5 mL/min/kg
same,MRT inf,[3]; [19],1.21 h
same,Vd,[3]; [19],0.41 L/kg
same,concentration at 2 h,[3]; [20],920 ng/mL
same,concentration at 2 h,[3]; [21],675 ng/mL
same,concentration at 2 h,[3]; [22],1280 ng/mL
same,concentration at 2 h,[3]; [23],801 ng/mL
same,concentration at 4 h,[3]; [20],1280 ng/mL
same,concentration at 4 h,[3]; [21],1310 ng/mL
same,concentration at 4 h,[3]; [22],1720 ng/mL
same,concentration at 4 h,[3]; [23],814 ng/mL
same,concentration at 8 h,[3]; [21],451 ng/mL
same,AUC(0-t),[3]; [24],12400 ng·h/mL
same,Cmax,[3]; [24],1280 ng/mL
same,AUC(0-inf),[3]; [24],12600 ng·h/mL
same,MRT inf,[3]; [24],6.14 h
same,Vd/F,[3]; [24],4.57 L/kg
same,AUC(0-t),[3]; [25],10700 ng·h/mL
same,Cmax,[3]; [25],1310 ng/mL
same,AUC(0-inf),[3]; [25],10900 ng·h/mL
same,MRT inf,[3]; [25],6.58 h
same,Vd/F,[3]; [25],5.74 L/kg
same,AUC(0-t),[3]; [26],17700 ng·h/mL
same,Cmax,[3]; [26],1720 ng/mL
same,AUC(0-inf),[3]; [26],17800 ng·h/mL
same,MRT inf,[3]; [26],5.87 h
same,Vd/F,[3]; [26],2.4 L/kg
same,AUC(0-t),[3]; [27],9000 ng·h/mL
same,Cmax,[3]; [27],814 ng/mL
same,AUC(0-inf),[3]; [27],9080 ng·h/mL
same,MRT inf,[3]; [27],5.96 h
same,Vd/F,[3]; [27],5.57 L/kg
same,Tmax,[3]; [8],0.08 h
same,Tmax,[3]; [9],4 h
